The text below walks through data of patent publication US20240309014A1, “MACROCYCLIC COMPOUNDS AND USES THEREOF” (President and Fellows of Harvard College, priority 2017, published 2024).

In experiment [1] the test system is human breast cancer cell line HCC1954. The experiment can be described thus: HCC1954 growth inhibition assay (Test Example 3). The experiment is classed as cell-based. Conditions: 3 days incubation, CellTiter-Glo. On the procedure:
(§1) In this assay, the growth inhibitory activity of test compounds in a human breast cancer cell line HCCl954 was measured. HCC1954 cells were maintained in an RPMI-1640 medium modified to contain 2 mM L-glutamine, 10 mM HEPES, 1 mM sodium pyruvate, 4500 mg/L glucose, and 1500 mg/L sodium bicarbonate (ATCC 30-2001) containing 10% fetal bovine serum (FBS: Nichirei, 12D168), and penicillin and streptomycin in a 5% CO2 incubator (37° C.). To each well of a 96 well plate (Becton, Dickinson and Company, 353219), 75 μL of HCC1954 cell suspension adjusted to a concentration of 4×10^4 cells/mL with the culture medium was added, and the cells were incubated overnight in a 5% CO2 incubator (37° C.). On the next day, 25 μL of Compound (1) or Halichondrin B in three-fold dilution series suspended in the culture medium was added to each well, and the resultant was incubated for 3 days in a 5% CO2 incubator (37° C.). Then, cell viability was determined by CellTiter-Glo® Luminescent Cell Viability Assay (Promega) with EnVision 2103 Multilabel Reader (Perkin-Elmer, Wellesley, MA). Value of the wells containing cells without adding the test compounds was defined as 100% and the value of the wells containing no cells was defined as 0%. The concentration of the test compound necessary for inhibiting the cell growth by 50% (i.e., an IC50 value) was calculated, and shown in Table 3.
On the technique in general: ATP-based viability assays read luminescence as a measure of living cells.

Experiment [2] has as its system α-SMA positive-CAFs in FaDu tumor. The experiment can be described thus: Effect on α-SMA positive-CAFs in the FaDu subcutaneous model (Test Example 10). The class given is in vivo, nude mice. To be noted: two days after administration. On the procedure: A human squamous cell carcinoma of the head and neck (SCCHN) cell line FaDu, which had been cultured in an RPMI-1640 medium containing 10% FBS, and penicillin and streptomycin, was adjusted to a concentration of 5×10^7 cells/mL with PBS to prepare a cell suspension. The cell suspension was inoculated in a volume of 100 μL into a subcutaneous part of a right flank of nude mice, 5 to 6 weeks of ages (CAnN.Cg-Foxnlnu/CrlCrlj, female, Charles River Laboratories Japan, Inc.). Ten days after cell inoculation, a test compound in saline with 100 μM of hydroxypropyl-β-cyclodextrin was intravenously administered at ½ MTD and MTD. The experiment was conducted on groups each consisting of 3 mice. Two days after administration, tumor samples were collected and fixed with IHC Zinc Fixative (BD Pharmingen) at 4° C. for 24 hr. Paraffin-embedded tissues were sectioned ([…]), mounted on positively charged slides, and air-dried for 6 hr. Immunohistochemical staining of α-SMA was conducted using Ventana autostainer model Discover XT (Roche Diagnostics). Sections were deparaffinized, conditioned and the antigens were retrieved with proprietary buffers, EZPrep and CC1 (Ventana Medical Systems). Mouse anti-α-SMA monoclonal antibody conjugated with alkaline phosphatase (clone 1A4, Sigma) was applied at 5 μg/mL. Sections were incubated with the antibody for 6 hr. The detection was performed with RedMap kit (Ventana Medical Systems, Inc). Sections were dehydrated in graded ethanols, defatted in xylene replacement and covered with DPX (Merck KGaA). The serial tumor slices were deparaffinized and stained with Mayer's hematoxylin (Muto Pure Chemicals) for 1 min. Sections were dehydrated in graded ethanols, defatted in xylene replacement and covered with DPX (Merck KGaA).
Immunostained slides were scanned using Vectra 2 Automated Slide Imaging System (Perkin Elmer Inc.). The area of the α-SMA-positive region in the whole tumor was quantified by counting the α-SMA-positive objects using inForm 2 software (PerkinElmer Inc.). Area of the tumor region was measured by assessing the hematoxylin-staining area using inForm 2 software (PerkinElmer Inc.). The area of the α-SMA positive region was normalized by the area of the tumor region. A suppression rate of the α-SMA positive area of the test compound-dosing group was calculated with the below formula, and shown in Table 10.

Experiment [3] relates to human breast cancer cell line MDA-MB231. Description: MDA-MB231 growth inhibition assay. The class given is cell-based. Conditions: 3 days incubation, CellTiter-Glo. On the procedure: as §1, with “MDA-MB231” for “HCCl954”, “MDA-MB231” for “HCC1954”, “Dulbecco's Modified Eagle's” for “an RPMI-1640”, “(Wako Pure Chemical Industries, Ltd., 044-29765) medium” for “modified to contain 2 mM L-glutamine, 10 mM HEPES, 1 mM sodium pyruvate, 4500 mg/L glucose, and 1500 mg/L sodium bicarbonate (ATCC 30-2001)”, “2.” for “3.”

Setting [4] is: MTD i.v. (Halichondrin B 0.05 mg/kg, Compound (1) 0.20 mg/kg).
Where [5] appears, read: ½ MTD i.v. (Halichondrin B 0.025 mg/kg, Compound (1) 0.10 mg/kg).

The structures appear in SMILES notation.

For orientation: IC50 means the concentration that gives 50% inhibition. A higher IC50 goes with lower potency. As for `C=C1C[C@@H]2CC[C@@]34C[C@H]5O[C@H]6[C@@H](O3)[C@H]3O[C@H](CC[C@@H]3O[C@H]6[C@H]5O4)CC(=O)O[C@@H]3[C@@H](C)[C@@H]4O[C@@H]5C[C@]6(C[C@@H]7O[C@]8(C[C@H](C)[C@@H]9O[C@H]([C@@H](O)C[C@@H](O)CO)C[C@@H]9O8)C[C@H](C)[C@@H]7O6)O[C@@H]5C[C@@H]4O[C@H]3C[C@H]3O[C@@H](CC[C@@H]1O2)C[C@@H](C)C3=C` [Halichondrin B, reference compound], the IC50 in experiment [1] amounted to 0.154 nM; in experiment [3], 1 nM. The “Suppression rate of α-SMA positive area (%)” value in experiment [2] (setting [4]) is 3%; in experiment [2] (setting [5]), 7%.
Regarding `C=C1C[C@@H]2CC[C@@]34C[C@H]5O[C@H]6[C@@H](O3)[C@H]3O[C@H](CC[C@@H]3O[C@H]6C5O4)CC(=O)O[C@@H]3[C@@H](C)[C@@H]4O[C@@H]5C[C@]6(C[C@@H]7O[C@]8(C[C@H](C)[C@@H]9O[C@H](CN)[C@H](O)C[C@@H]9O8)C[C@H](C)[C@@H]7O6)O[C@@H]5C[C@@H]4O[C@H]3C[C@H]3O[C@@H](CC[C@@H]1O2)C[C@@H](C)C3=C` (stereo in doubt) [Compound (1)], the IC50 in experiment [1] (Homo sapiens, HCC1954, 72 h) was 0.0668 nM; in experiment [3] (Homo sapiens, MDA-MB-231, 72 h), 0.109 nM. Moreover, the “Suppression rate of α-SMA positive area (%)” value in experiment [2] (setting [4]) turned out to be 28%; in experiment [2] (setting [5]), 21%.
